Experiments:
Collagenase 3 = Collagenase 3 (Homo sapiens, UniProt P45452)
Homo sapiens [1] = species: Homo sapiens; assay: Selectivity for MMP13 over MMP2
Homo sapiens [2] = species: Homo sapiens; assay: Selectivity for MMP13 over MMP12
Homo sapiens [3] = species: Homo sapiens; assay: Selectivity for MMP13 over MMP8

| SMILES | IC50 (Collagenase 3) | Selectivity ratio (Homo sapiens [1]) | Selectivity ratio (Homo sapiens [2]) | Selectivity ratio (Homo sapiens [3]) |
| --- | --- | --- | --- | --- |
| CCOCCC1(Oc2ccc(Oc3ccc(-c4noc(-c5ccccc5)n4)cc3)cc2)C(=O)NC(=O)NC1=O | 0.84 nM | 27 | 37 |  |
| CCOCCC1(Oc2ccc(Oc3ccc(-c4nc(-c5cccc(F)c5)co4)cc3)cc2)C(=O)NC(=O)NC1=O | 0.36 nM | 292 | 906 | 133 |
| CCOCCC1(Oc2ccc(Oc3ccc(-c4nc(-c5ccncc5)no4)cc3)cc2)C(=O)NC(=O)NC1=O | 0.54 nM | 291 | 232 | 555 |
| CCOCCC1(Oc2ccc(Oc3ccc(C(=O)NCc4ccccn4)cc3)cc2)C(=O)NC(=O)NC1=O | 6.1 nM | 17 | 30 |  |
| COCCC1(Oc2ccc(Oc3ccc(-c4nc(-c5cccc(F)c5)co4)cc3)cc2)C(=O)NC(=O)NC1=O | 0.46 nM | 239 | 1310 | 152 |
| CCOCCC1(Oc2ccc(Oc3ccc(C(=O)Nc4ccccc4)cc3)cc2)C(=O)NC(=O)NC1=O | 0.84 nM | 58 | 50 | 200 |
| CCOCCC1(Oc2ccc(Oc3ccc(C(=O)NCc4ccccc4)cc3)cc2)C(=O)NC(=O)NC1=O | 8 nM | 21 | 27 |  |
| COCCC1(Oc2ccc(Oc3ccc(-c4nc(-c5ccccc5C#N)co4)cc3)cc2)C(=O)NC(=O)NC1=O | 0.73 nM | 173 | 342 | 516 |
| CCOCCC1(Oc2ccc(Oc3ccc(C(=O)NCc4ccc(F)cc4)cc3)cc2)C(=O)NC(=O)NC1=O | 3.4 nM | 17 | 11 |  |
| CCOCCC1(Oc2ccc(Oc3ccc(-c4cc(-c5ccccc5)no4)cc3)cc2)C(=O)NC(=O)NC1=O | 1.6 nM | 11 | 38 | 571 |
| CCOCCC1(Oc2ccc(Oc3ccc(-c4nc(-c5ccc(F)cc5)no4)cc3)cc2)C(=O)NC(=O)NC1=O | 6.1 nM | 80 | 114 | 210 |
| CCOCCC1(Oc2ccc(Oc3ccc(-c4nc(-c5cccc(C#N)c5)co4)cc3)cc2)C(=O)NC(=O)NC1=O | 0.53 nM | 58 | 134 | 155 |
| CCOCCC1(Oc2ccc(Oc3ccc(-c4nc(-c5ccncc5)co4)cc3)cc2)C(=O)NC(=O)NC1=O | 0.4 nM | 70 | 530 | 250 |
| CCOCCC1(Oc2ccc(Oc3ccc(C(=O)Nc4ccccn4)cc3)cc2)C(=O)NC(=O)NC1=O | 3.9 nM | 27 | 27 | 15 |
| CCOCCC1(Oc2ccc(Oc3ccc(-c4nc(-c5ccccc5C#N)co4)cc3)cc2)C(=O)NC(=O)NC1=O | 0.88 nM | 142 | 178 | 569 |
| CCOCCC1(Oc2ccc(Oc3ccc(C(=O)NCc4ccccc4F)cc3)cc2)C(=O)NC(=O)NC1=O | 1.1 nM | 55 | 80 | 27 |
| CCOCCC1(Oc2ccc(Oc3ccc(-c4nc(-c5ccccc5)co4)cc3)cc2)C(=O)NC(=O)NC1=O | 2.4 nM | 58 | 259 | 115 |
| COCCC1(Oc2ccc(Oc3ccc(-c4nc(-c5ccccc5F)co4)cc3)cc2)C(=O)NC(=O)NC1=O | 1.4 nM | 288 | 605 | 149 |
